Measurements taken from article PMC13070491, “Single-nucleus transcriptomics, pharmacokinetics, and pharmacodynamics of CDK4/6 and mTOR inhibition in a Phase 0/1 trial of recurrent high-grade glioma” (Neuro-Oncology, 2025).
Values joined by “and” are separate entries in the source; they are usually repeats but may differ in a detail not shown here. Equal entries are not always repeated.

Assay: CNS penetration: total and unbound drug concentrations in tumor regions, CSF and plasma (LC-MS/MS, equilibrium dialysis);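 also: drug levels in patient tumor tissue from contrast-enhancing and non-enhancing regions sampled under MRI-guided neuronavigation, with plasma and CSF drawn during surgical resection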
Settings: for concentration at 5 days / Kp at 120 h / Kp: human, oral
[1] = Level 6: Ribociclib 600mg QD + Everolimus 70mg once on Day 5, sampling 7-9 Hours, per patient

For CO[C@H]1C[C@@H]2CC[C@@H](C)[C@@](O)(O2)C(=O)C(=O)N2CCCC[C@H]2C(=O)O[C@H]([C@H](C)C[C@@H]2CC[C@@H](OCCO)[C@H](OC)C2)CC(=O)[C@H](C)/C=C(\C)[C@@H](O)[C@@H](OC)C(=O)[C@H](C)C[C@H](C)/C=C/C=C/C=C/1C [Everolimus, everolimus], the Everolimus.Unbound.plasma (Level 5: Ribociclib 600mg QD + Everolimus 60mg once on Day 5, sampling 7-9 Hours, per patient) was 4.09E-04 and 6.26E-04 and 4.66E-04, the Everolimus.CSF [1] was 1.14E-02 and BLQ and 1.29E-03 and the Everolimus.Enhancing.tumor [1] was 7.18E-02 and 9.00E-02 and 3.12E-02. The Everolimus.Non-enhancing.tumor [1] was 7.82E-02 and 8.24E-03 and 6.80E-03, the Everolimus.Plasma.conc [1] was 0.0531 and 0.05464 and 0.09057 and the Everolimus.Unbound.enhancing [1] was “BLQ”. The Everolimus.Unbound.non-enhancing [1] was “BLQ”, the Everolimus.Unbound.plasma [1] was 3.00E-04 and 2.82E-04 and 4.90E-04 and the “Kp total drug tumor-to-plasma partition ratio, Enhancing tumor, MAX” value (everolimus 2.5 mg QD 5 days) was 2.738. The “Kp total drug tumor-to-plasma partition ratio, Enhancing tumor, MIN” value (everolimus 2.5 mg QD 5 days) was “BLQ”, the “Kp total drug tumor-to-plasma partition ratio, Non-enhancing tumor, MAX” value (everolimus 2.5 mg QD 5 days) was 1.02 and the “Kp total drug tumor-to-plasma partition ratio, Non-enhancing tumor, MIN” value (everolimus 2.5 mg QD 5 days) was “BLQ”. The “Kp total drug tumor-to-plasma partition ratio, Enhancing tumor, MAX” value (everolimus 5 mg QD 5 days) was 1.77, the “Kp total drug tumor-to-plasma partition ratio, Enhancing tumor, MIN” value (everolimus 5 mg QD 5 days) was 0.59 and the “Kp total drug tumor-to-plasma partition ratio, Non-enhancing tumor, MAX” value (everolimus 5 mg QD 5 days) was 1.09. For the same compound, the “Kp total drug tumor-to-plasma partition ratio, Non-enhancing tumor, MIN” value (everolimus 5 mg QD 5 days) was 0.37, the “Kp total drug tumor-to-plasma partition ratio, Enhancing tumor, MAX” value (everolimus 10 mg QD 5 days) was 1.97 and the “Kp total drug tumor-to-plasma partition ratio, Enhancing tumor, MIN” value (everolimus 10 mg QD 5 days) was “BLQ”. For the same compound, the “Kp total drug tumor-to-plasma partition ratio, Non-enhancing tumor, MAX” value (everolimus 10 mg QD 5 days) was 1.07, the “Kp total drug tumor-to-plasma partition ratio, Non-enhancing tumor, MIN” value (everolimus 10 mg QD 5 days) was 0.07 and the “Kp total drug tumor-to-plasma partition ratio, Enhancing tumor, MAX” value (everolimus 50 mg single dose) was 1.18. The “Kp total drug tumor-to-plasma partition ratio, Enhancing tumor, MIN” value (everolimus 50 mg single dose) was 0.65, the “Kp total drug tumor-to-plasma partition ratio, Non-enhancing tumor, MAX” value (everolimus 50 mg single dose) was 0.32 and the “Kp total drug tumor-to-plasma partition ratio, Non-enhancing tumor, MIN” value (everolimus 50 mg single dose) was “BLQ”. The “Kp total drug tumor-to-plasma partition ratio, Enhancing tumor, MAX” value (everolimus 60 mg single dose) was 1.24, the “Kp total drug tumor-to-plasma partition ratio, Enhancing tumor, MIN” value (everolimus 60 mg single dose) was 0.145 and the “Kp total drug tumor-to-plasma partition ratio, Non-enhancing tumor, MAX” value (everolimus 60 mg single dose) was 0.51. For the same compound, the “Kp total drug tumor-to-plasma partition ratio, Enhancing tumor, MAX” value (everolimus 70 mg single dose) was 1.64, the “Kp total drug tumor-to-plasma partition ratio, Enhancing tumor, MIN” value (everolimus 70 mg single dose) was 0.34 and the “Kp total drug tumor-to-plasma partition ratio, Non-enhancing tumor, MAX” value (everolimus 70 mg single dose) was 1.47. For the same compound, the “Kp total drug tumor-to-plasma partition ratio, Non-enhancing tumor, MIN” value (everolimus 70 mg single dose) was 0.075, the concentration at 5 days (CSF, Total everolimus, MAX, 10 mg QD 5 days) was 2.5 nM and the concentration at 5 days (CSF, Total everolimus, MAX, 50 mg single dose) was 1.5 nM. The concentration at 5 days (CSF, Total everolimus, MED, 2.5 mg QD 5 days) was 0.33 nM, the concentration at 5 days (CSF, Total everolimus, MED, 50 mg single dose) was 0.935 nM and the concentration at 5 days (CSF, median everolimus CSF concentration, across the different dose levels) was 0.48 nM. The Kp at 120 h (enhancing tumor and plasma, 2.5 mg) was 0.62, the Kp at 120 h (enhancing tumor and plasma, 5 mg) was 1.32 and the Kp at 120 h (enhancing tumor and plasma, 10 mg) was 1.2. The Kp (enhancing tumor and plasma, 50 mg) was 0.89, the Kp (enhancing tumor and plasma, 60 mg) was 0.33 and the Kp (enhancing tumor and plasma, 70 mg) was 1.35. It also gave a concentration at 5 days (enhancing tumor, Total everolimus, MAX, 2.5 mg QD 5 days) of 83.4 nM, a concentration at 5 days (enhancing tumor, Total everolimus, MAX, 5 mg QD 5 days) of 39.8 nM and a concentration at 5 days (enhancing tumor, Total everolimus, MAX, 10 mg QD 5 days) of 61.3 nM. It also gave a concentration at 5 days (enhancing tumor, Total everolimus, MAX, 50 mg single dose) of 74.1 nM, a concentration at 5 days (enhancing tumor, Total everolimus, MAX, 60 mg single dose) of 87.6 nM and a concentration at 5 days (enhancing tumor, Total everolimus, MAX, 70 mg single dose) of 90 nM. It also gave a concentration at 5 days (enhancing tumor, Total everolimus, MED, 2.5 mg QD 5 days) of 5.9 nM, a concentration at 5 days (enhancing tumor, Total everolimus, MED, 5 mg QD 5 days) of 16.6 nM and a concentration at 5 days (enhancing tumor, Total everolimus, MED, 10 mg QD 5 days) of 44 nM. For the same compound, the concentration at 5 days (enhancing tumor, Total everolimus, MED, 50 mg single dose) was 54.5 nM, the concentration at 5 days (enhancing tumor, Total everolimus, MED, 60 mg single dose) was 30.4 nM and the concentration at 5 days (enhancing tumor, Total everolimus, MED, 70 mg single dose) was 71.8 nM. It also gave a concentration at 5 days (enhancing tumor, Total everolimus, MIN, 5 mg QD 5 days) of 11.1 nM, a concentration at 5 days (enhancing tumor, Total everolimus, MIN, 50 mg single dose) of 51.6 nM and a concentration at 5 days (enhancing tumor, Total everolimus, MIN, 60 mg single dose) of 9.8 nM. The concentration at 5 days (enhancing tumor, Total everolimus, MIN, 70 mg single dose) was 31.2 nM, the Kp at 120 h (non-enhancing tumor / plasma, 5 mg) was 0.89 and the Kp at 120 h (non-enhancing tumor / plasma, 10 mg) was 0.1. For the same compound, the Kp at 120 h (non-enhancing tumor and plasma, 2.5 mg) was 0.49, the Kp (non-enhancing tumor and plasma, 50 mg) was 0.21 and the Kp (non-enhancing tumor and plasma, 60 mg) was 0.17. It also gave a Kp (non-enhancing tumor and plasma, 70 mg) of 0.15, a concentration at 5 days (non-enhancing tumor, Total everolimus, MAX, 2.5 mg QD 5 days) of 35.3 nM and a concentration at 5 days (non-enhancing tumor, Total everolimus, MAX, 5 mg QD 5 days) of 20.2 nM. It also gave a concentration at 5 days (non-enhancing tumor, Total everolimus, MAX, 10 mg QD 5 days) of 33.3 nM, a concentration at 5 days (non-enhancing tumor, Total everolimus, MAX, 50 mg single dose) of 25.1 nM and a concentration at 5 days (non-enhancing tumor, Total everolimus, MAX, 60 mg single dose) of 36.1 nM. The concentration at 5 days (non-enhancing tumor, Total everolimus, MAX, 70 mg single dose) was 78.2 nM, the concentration at 5 days (non-enhancing tumor, Total everolimus, MED, 2.5 mg QD 5 days) was 5.28 nM and the concentration at 5 days (non-enhancing tumor, Total everolimus, MED, 5 mg QD 5 days) was 10.3 nM. The concentration at 5 days (non-enhancing tumor, Total everolimus, MED, 10 mg QD 5 days) was 5 nM, the concentration at 5 days (non-enhancing tumor, Total everolimus, MED, 50 mg single dose) was 15.7 nM and the concentration at 5 days (non-enhancing tumor, Total everolimus, MED, 60 mg single dose) was 13.8 nM. For the same compound, the concentration at 5 days (non-enhancing tumor, Total everolimus, MED, 70 mg single dose) was 8.2 nM, the concentration at 5 days (non-enhancing tumor, Total everolimus, MIN, 5 mg QD 5 days) was 9.2 nM and the concentration at 5 days (non-enhancing tumor, Total everolimus, MIN, 10 mg QD 5 days) was 4.5 nM. The concentration at 5 days (non-enhancing tumor, Total everolimus, MIN, 60 mg single dose) was 11.3 nM, the concentration at 5 days (non-enhancing tumor, Total everolimus, MIN, 70 mg single dose) was 6.8 nM and the concentration at 5 days (tumor tissue (enhancing and non-enhancing regions), unbound everolimus concentrations in enhancing and non-enhancing tumor regions (below the lower limit of quantitation), all dose levels) was < 0.1 nM.
